Measured values from patent publication US7361186B2, “Active body cooling with vasodilation to reduce body temperature” (priority 2003, dated 2008).
“And” between values parts separate entries of the source, which are not always exact repeats. Equal entries are not always repeated. Where two headings read alike, the source gives them in different places.

Columns and labels:
healthy subjects [1] = settings: Phase 4
Description: (§1) Mild hypothermia is induced and maintained in healthy subjects for up to several hours. […] Each volunteer is cooled using contact-cooling pads (Arctic Sun Energy Transfer Pads™, Medivance, Inc., Louisville, Colo., U.S.A.). Contact-cooling pads are applied to contact the subjects, and water at a controlled temperature is delivered to and circulated through the contact pads to effect the controlled cooling of each volunteer.

healthy subjects [2] = settings: Phase 6
Description: Mild hypothermia is induced and maintained in healthy subjects for up to several hours. Table 1 summarizes data concerning the subjects for each phase of testing (Phases 1, 3a, 4, 5 and 6). Each volunteer is cooled using contact-cooling pads (Arctic Sun Energy Transfer Pads™, Medivance, Inc., Louisville, Colo., U.S.A.). Contact-cooling pads are applied to contact the subjects, and water at a controlled temperature is delivered to and circulated through the contact pads to effect the controlled cooling of each volunteer.
Five contact-cooling pads are applied to the thighs, back and abdomen of each subjects, and actively cooled. The pads cover and contact about 0.6 square meter of the subject's exterior body surface area, which is the area in heat transfer communication between the pads and the subject's body. Temperatures are measured in the same manner as in Phase 1 except that the rectal temperature probe is connected to a control module and the rectal temperature signal is used by the control module to adjust inlet water temperature via a feedback control algorithm to achieve a target core body temperature of 34.5° C.
A single oral dose of acetaminophen (1000 mg), is administered within 20 minutes prior to treatment. A bolus of IV meperidine (Demerol®, 50-100 mg) is given within 5 minutes of the start of active cooling. Additional doses of meperidine are administered to maintain comfort and to prevent shivering. Active cooling and maintenance of hypothermia continues for five hours. As in the Phase 1, the subjects are actively re-warmed to a tympanic and rectal temperatures of at least of 36° C. prior to termination of the experiment. Shivering, comfort, oxyhemoglobin saturation, and arterial blood pressure are recorded as in Phase 1.
Phase 5 Phase 5 proceeds as described for Phase 3a, except as noted. The temperature of water circulated to the contact-cooling pads is controlled to achieve a target core body temperature of 34.5° C. In addition to meperidine (Demerol®), subjects are also given an IV dose of 8 mg ondansetron (hydrochloride salt, Glaxo Wellcome). […]

healthy subjects [3] = experiment: Phase 5: cooling under meperidine plus IV ondansetron; assay type: in vivo, human
healthy subjects [4] = experiment: Phase 1: cooling of healthy subjects with contact-cooling pads under meperidine; assay type: in vivo, human
Procedure: Four contact pads are applied to the thighs and chest of each subject and each subject is rapidly cooled with an objective of reducing core body temperature to 34-35° C. Core body temperatures are measured at the tympanic membrane and the rectum. Mean skin-surface temperature is determined from the weighted average of calf, thigh, chest, and upper arm skin temperatures. Thermoregulatory vasoconstriction is evaluated using forearm minus fingertip skin-temperature gradients. Temperatures are measured using Mon-a-Therm™ themocouple probes connected to Mallinckrodt Model 6510 two-channel electronic thermometers having an accuracy near 0.1° C. (Mallinckrodt Anesthesia Products, St. Louis, Mo., U.S.A.). Temperatures are recorded before cooling is started (i.e., baseline) and subsequently at 15-minute intervals.
Each of subjects 1-5 is administered a single dose of acetomiophen (1000 mg) within 20 minutes prior to treatment and is administered a bolus of intravenous (IV) meperidine (Demerol®, 25-75 mg) within 5 minutes of the start of cooling. Subjects also receive initial doses of chlorpromazine (Thorazine®, 12.5-25 mg, IV). Active cooling is initiated and the inlet water temperature is controlled to achieve a target tympanic temperature between 34° C. and 35° C. Additional doses of meperidine and/or chloropromazine are administered to maintain comfort and to prevent shivering. Active cooling and maintenance of hypothermia continues for up to five hours, after which subjects are actively re-warmed to tympanic and rectal temperatures of at least 36° C.
The presence of shivering is noted by physical examination, electromyographic artifact on continuous electrocardiography (ECG), or by subject report. Overall thermal comfort is evaluated at 15-min intervals with a 100-mm-long visual analog scale (VAS) on which 0 mm defines the worst imaginable cold, 50 mm identifies thermal neutrality, and 100 mm indicates unbearable heat. A new, unmarked scale is used for each assessment. Heart rate and oxyhemoglobin saturation are monitored using ECG and pulse oximetry; arterial blood pressure is recorded oscillometrically at 15-minute intervals.

healthy subjects [5] = experiment: Phase 3a: cooling with five contact-cooling pads under meperidine; assay type: in vivo, human
Description: as §1

healthy subjects [6] = experiment: Subsequent test similar to Phase 5 with supplemental ondansetron dose; assay type: in vivo, human; settings: one subject; ondansetron 8 mg initial dose and 8 mg supplemental dose 3.5 hours later
Procedure: Moreover, during a subsequent test conducted in a manner similar to that described for Phase 5, a subject is administered an initial dose of 8 mg of the ondansetron followed by a supplemental dose of 8 mg of the ondansetron administered 3.5 hours later.

[7] = meperidine plus buspirone, mean of 4 subjects
[8] = meperidine, ondansetron and magnesium sulfate, mean of 8 subjects
[9] = meperidine regimen, mean of 5 subjects
[10] = Phase 3a, meperidine regimen, individual subjects
[11] = Phase 3a, meperidine regimen, mean of 5 subjects
[12] = Phase 5, meperidine plus ondansetron, mean of 6 subjects

O=C1CC2(CCCC2)CC(=O)N1CCCCN1CCN(c2ncccn2)CC1 [buspirone]
Cooling rate to 35° C., Mean ± SD (healthy subjects [1]; [7]): 1.2 ± 0.4 ° C./hr | Time to 35° C., Mean ± SD (healthy subjects [1]; [7]): 109 ± 40 min | effect on incidence of nausea (healthy subjects [1]; oral buspirone 30-60 mg with meperidine, four subjects): did not reduce the incidence of nausea

O=S(=O)([O-])[O-].[Mg+2] [magnesium sulfate]
indications of vasodilation (Tdig being larger than Tfore) (healthy subjects [2]; early stages of cooling): seven of eight subjects | Cooling rate to 35° C., Mean ± SD (healthy subjects [2]; [8]): 1.3 ± 0.4 ° C./hr | Time to 35° C., Mean ± SD (healthy subjects [2]; [8]): 86 ± 23 min

CCOC(=O)C1(c2ccccc2)CCN(C)CC1 [meperidine]
allergic reaction (healthy subjects [3]; Phase 5, one subject withdrawn, facial rash): mild allergic reaction | Time to 35° C. (healthy subjects [4]; four contact pads, acetaminophen 1000 mg, IV meperidine 25-75 mg bolus plus additional doses, chlorpromazine, tympanic temperature, individual subjects): 105 min and 78 min and 41 min and 82 min and 81 min | Nausea or Vomiting During Treatment (healthy subjects [4]; meperidine regimen, individual subjects): None | Cooling rate to 35° C., Mean ± SD (healthy subjects [4]; [9]): 1.5±0.6 ° C./hr and 1.5 ± .6 ° C./hr | Time to 35° C., Mean ± SD (healthy subjects [4]; [9]): 77 ± 23 min | Cooling rate to 35° C. (healthy subjects [4]; meperidine regimen, tympanic temperature, individual subjects): 1.0 ° C./hr and 1.5 ° C./hr and 2.6 ° C./hr and 1.2 ° C./hr and 1.4 ° C./hr | Systolic blood pressure (healthy subjects [5]; Phase 3a, 180 min timepoint, baseline 122±13, p=0.042): 140±20 mm Hg | change in heart rate, diastolic blood pressure, or blood oxygenation compared with baseline (healthy subjects [5]; Phase 3a, all subjects, during cooling): no statistically significant change | Time to 35° C. (healthy subjects [5]; Phase 3a, five contact-cooling pads, oral acetaminophen 1000 mg, IV meperidine 50-100 mg bolus plus additional doses, tympanic temperature, individual subjects): 64 min and 180 min and 94 min and 56 min and 46 min | Cooling rate to 35° C. (healthy subjects [5]; [10]): 1.9 ° C./hr (2×) and .9 ° C./hr and 1.2 ° C./hr and 2.1 ° C./hr | Nausea or Vomiting During Treatment (healthy subjects [5]; [10]): Nausea end (2×) and None and Nausea early, end and Nausea, vomiting mid | Cooling rate to 35° C., Mean ± SD (healthy subjects [5]; [11]): 1.6 ± 0.5 ° C./hr | Time to 35° C., Mean ± SD (healthy subjects [5]; [11]): 88 ± 54 min | respiratory compromise (healthy subjects [5]; Phases 1 and 3a): no respiratory compromise | nausea observed, share of subjects (healthy subjects [5]; Phases 1 and 3a pooled, all cases in Phase 3a): 30 % of subjects | indications of vasodilation (Tdig being larger than Tfore) (healthy subjects [5]; Phases 3a, 4 and 5 (no vasodilation drug), early stages of cooling): only a few of the subjects

Cc1nccn1CC1CCc2c(c3ccccc3n2C)C1=O (stereo not drawn) [ondansetron]
Cumulative Heat Transfer From Subject, 5 Min (healthy subjects [3]; Phase 5, 5 Min after initiation of cooling, gross values, corrected values approximately 15% smaller, individual subjects): 53.91 kcal and 37.16 kcal and 48.61 kcal and 45.90 kcal and 44.85 kcal | Cumulative Heat Transfer From Subject, 10 Min (healthy subjects [3]; Phase 5, 10 Min after initiation of cooling, gross values, individual subjects): 96.81 kcal and 73.79 kcal and 84.78 kcal and 82.99 kcal and 79.01 kcal | Cumulative Heat Transfer From Subject, 15 Min (healthy subjects [3]; Phase 5, 15 Min after initiation of cooling, gross values, individual subjects): 136.59 kcal and 109.68 kcal and 124.12 kcal and 118.51 kcal and 111.35 kcal | Cumulative Heat Transfer From Subject, 20 Min (healthy subjects [3]; Phase 5, 20 Min after initiation of cooling, gross values, individual subjects): 175.59 kcal and 142.73 kcal and 163.01 kcal and 151.96 kcal and 142.43 kcal | Cumulative Heat Transfer From Subject, 25 Min (healthy subjects [3]; Phase 5, 25 Min after initiation of cooling, gross values, individual subjects): 214.2 kcal and 169.85 kcal and 200.85 kcal and 184.79 kcal and 172.00 kcal | Cumulative Heat Transfer From Subject, 30 Min (healthy subjects [3]; Phase 5, 30 Min after initiation of cooling, gross values, individual subjects): 252.02 kcal and 184.74 kcal and 239.02 kcal and 218.02 kcal and 201.44 kcal | Cumulative Heat Transfer From Subject, 45 Min (healthy subjects [3]; Phase 5, 45 Min after initiation of cooling, gross values, individual subjects): 360.32 kcal and 205.19 kcal and 354.67 kcal and 309.30 kcal and 282.20 kcal | Cumulative Heat Transfer From Subject, 60 Min (healthy subjects [3]; Phase 5, 60 Min after initiation of cooling, gross values, individual subjects): 466.28 kcal and 212.94 kcal and 467.30 kcal and 346.56 kcal and 353.28 kcal | Cumulative Heat Transfer From Subject, 75 Min (healthy subjects [3]; Phase 5, 75 Min after initiation of cooling, gross values, individual subjects): 567.71 kcal and 284.94 kcal and 574.88 kcal and 361.63 kcal and 423.43 kcal | Cumulative Heat Transfer From Subject, 90 Min (healthy subjects [3]; Phase 5, 90 Min after initiation of cooling, gross values, individual subjects): 667.78 kcal and 348.14 kcal and 676.99 kcal and 367.39 kcal and 436.35 kcal | Cumulative Heat Transfer From Subject, 105 Min (healthy subjects [3]; Phase 5, 105 Min after initiation of cooling, gross values, individual subjects): 767.83 kcal and 375.85 kcal and 708.76 kcal and 366.43 kcal and 458.46 kcal | Cumulative Heat Transfer From Subject, 120 Min (healthy subjects [3]; Phase 5, 120 Min after initiation of cooling, gross values, individual subjects): 867.73 kcal and 407.01 kcal and 733.20 kcal and 368.56 kcal and 457.78 kcal | effect on incidence of nausea and vomiting (healthy subjects [3]; Phase 5, IV ondansetron 8 mg with meperidine, relative to Phases 3a and 4): reduces the incidence of nausea and vomiting | Time to 35° C. (healthy subjects [3]; Phase 5, as Phase 3a (meperidine) plus IV ondansetron 8 mg, individual subjects): 58 min and 88 min and 310 min and 189 min and 60 min and 80 min | Cooling rate to 35° C. (healthy subjects [3]; Phase 5, meperidine plus IV ondansetron 8 mg, individual subjects): 1.4 ° C./hr and 1.6 ° C./hr and 0.5 ° C./hr and 0.6 ° C./hr and 1.9 ° C./hr and 1.5 ° C./hr | Cooling rate to 35° C., Mean ± SD (healthy subjects [3]; [12]): 1.3 ° C./hr and 1.3 ± 0.6 ° C./hr | Time to 35° C., Mean ± SD (healthy subjects [3]; [12]): 131 ± 100 min | meperidine administration relative to Phase 3a (healthy subjects [3]; Phase 5, p=0.26, t-test): trend toward less meperidine administration | mean comfort score (healthy subjects [3]; Phase 5 versus Phases 1, 3a and 4): higher | nausea (healthy subjects [6]): does not experience nausea
